We go through three molecules from patent publication US20230227838A1, “ENHANCED CELL SURVIVAL AGAINST BIOTIC AND ABIOTIC STRESSES THROUGH SALICYLICK ACID-INDUCED NPR1 CONDENSATES” (priority 2020, published 2023).

The subject of assay [1] is total protein ubiquitination. Kind of assay: Total ubiquitination in N. benthamiana expressing CUL3 and NPR1 or sim3. It is filed as cell-based, Nicotiana benthamiana. As for the experimental part: Protein analysis and IP. Recombinant protein analysis was performed using transient expression in N. benthamiana, or stable over-expression in transgenic Arabidopsis, or expression in E. coli. Total protein extraction from plants was performed by homogenizing leaf tissue in the plant extraction buffer [50 mM Tris-HCl (pH 7.5), 150 mM NaCl, 5 mM EDTA, 0.2% Triton X-100, 0.2% Nonidet P-40] supplemented with 1 mM PMSF, 100 μM MG132, and EDTA-free protease inhibitor cocktail (Roche). For ubiquitinated protein analysis in plants, 100 μM of DUB (deubiquitinase) inhibitor (LifeSensors) and 10 mM NEM were added. Next, the lysates were cleared by centrifugation at 14,000 rpm for 15 min followed by filtering through a 0.2 μm filter. […] Pull-downs or IP experiments were done on total protein extracts by incubating protein samples in the lysis buffer overnight with indicated affinity tag or antibody conjugated to agarose or magnetic beads: GFP-trap agarose beads (Chromotek) for GFP fusions; RFP-trap agarose beads (Chromotek) for mCherry fusions; anti-HA magnetic beads (ThermoFisher) for HA tag fusions; anti-DYKDDDDK coupled magnetic agarose (ThermoFisher) for FLAG tag fusions; and glutathione magnetic agarose (ThermoFisher) for GST fusions. Unless otherwise indicated, after pull-down/IP, beads were washed 3 times and proteins were eluted by boiling in the 2×SDS sample buffer. […]

The next assay relates to EDS1. Kind of assay: Interaction with EDS1 (co-IP in planta, pull-down in E. coli). As to conditions: in planta (1 mM SA 5 hr) and in E. coli. It is filed as binding, Arabidopsis thaliana. The source says: Plasmid construction and E. coli-based ubiquitination: The coding sequences for all Arabidopsis genes were amplified from cDNA. Point mutations of AtNPR1 (AT1G64280) were generated using the QuikChange II site-directed mutagenesis kit (Agilent). Overlap PCR was used to generate the deletion/truncation mutations of AtCUL3A (AT1G26830) and AtNPR1. The WT and mutated coding sequences for all genes and gene fusions were sub-cloned into the pDONR207 gateway donor vector and confirmed by sequencing. The obtained entry vectors were recombined into either plant or E. coli destination vectors without or with an N- or C-terminal tag. For in planta expression, genes were recombined into the plant binary vectors pK7FWG2, pSITE-4NB and pLN462 to generate C-terminal eGFP, mCherry and HA fusions, respectively; into pK7WGF2, pEG201, pEG202, pEG203 and pEG204 to generate N-terminal eGFP, HA, FLAG, Myc and V5 fusions, respectively. […] For bimolecular fluorescence complementation (BiFC), entry vectors carrying the coding sequences of genes and their mutant variants were recombined into the pSITE-cEYFP-N1 binary vector for C-terminal fusion with the cYFP half (YC), or into the pSITE-nEYFP-C1 for N-terminal fusion with the nYFP half (YN). […]

`O=C(O)c1ccccc1O` [SA, salicylic acid]: the “total protein ubiquitination under dose response to SA” value in assay [1] (3 mM SA) is “reduction in ubiquitination”.

Take “NPR1: wild-type Arabidopsis thaliana NPR1 protein, positive regulator of systemic acquired resistance”: the “interaction with EDS1” value with EDS1 is given as “direct interaction”.

B1: sim3: SUMOylation-deficient mutant of NPR1 (protein)
chain: MDTTIDGFADSYEISSTSFVATDNTDSSIVYLAAEQVLTGPDVSALQLLSNSFESVFDSPDDFYSDAKLVLSDGREVSFHRCVLSARSSFFKSALAAAKKEKDSNNTAAVKLELKEIAKDYEVGFDSVVTVLAYVYSSRVRPPPKGVSECADENCCHVACRPAVDFMLEVLYLAFIFKIPELITLYQRHLLDVVDKVVIEDTLVILKLANICGKACMKLLDRCKEIIVKSNVDMVSLEKSLPEELVKEIIDRRKELGLEVPKVKKHVSNVHKALDSDDIELVKLLLKEDHTNLDDACALHFAVAYCNVKTATDLLKLDLADVNHRNPRGYTVLHVAAMRKEPQLAASALEKGASASEATLEGRTALMIAKQATMAVECNNIPEQCKHSLKGRLCVEILEQEDKREQIPRDVPPSFAVAADELKMTLLDLENRVALAQRLFPTEAQAAMEIAEMKGTCEFIVTSLEPDRLTGTKRTSPGVKIAPFRILEEHQSRLKALSKTVELGKRFFPRCSAVLDQIMNCEDLTQLACGEDDTAEKRLQKKQRYMEIQETLKKAFSEDNLELGNSSLTDSTSSTSKSTGGKRSNRKLSHRRR
modifications: left off: small tags and cut ends
notes: SUMOylation-deficient mutant of NPR1
On to B1, for which, in the assay on EDS1, the “interaction with EDS1” value was “could interact”. Besides, the “baseline SA-dependent ubiquitination” value in assay [1] (compared with NPR1) was “lower”.
